This assay addresses T1, mouse GLP-1 receptor (Mus musculus, UniProt O35659).
T1 construct: βTC6 cells which express GLP-1R endogenously; host or cells: βTC6 cells
T1 sequence (O35659 22-463): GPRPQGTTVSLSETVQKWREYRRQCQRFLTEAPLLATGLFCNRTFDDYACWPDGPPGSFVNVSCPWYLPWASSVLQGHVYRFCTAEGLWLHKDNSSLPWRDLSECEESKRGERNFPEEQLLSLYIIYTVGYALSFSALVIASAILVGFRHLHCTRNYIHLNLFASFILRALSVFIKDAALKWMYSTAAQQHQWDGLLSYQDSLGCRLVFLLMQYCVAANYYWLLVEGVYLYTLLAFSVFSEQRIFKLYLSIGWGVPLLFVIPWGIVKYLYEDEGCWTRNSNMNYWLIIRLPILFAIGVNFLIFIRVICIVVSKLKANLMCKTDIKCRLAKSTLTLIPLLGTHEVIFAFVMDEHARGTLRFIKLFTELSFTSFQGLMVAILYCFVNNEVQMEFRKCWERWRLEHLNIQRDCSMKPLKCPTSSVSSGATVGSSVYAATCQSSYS
Kind of assay: cAMP production in βTC6 cells expressing GLP-1R endogenously (Method C2). The settings on record: for Potency (%), Table S1: from EC50 in βTC6 cAMP assay, footnote: compare to GLP-1-NH2 (2). Format: cell-based. Background: cAMP levels reflect the balance of adenylyl cyclase and phosphodiesterase activity.

Where [1] appears, read: read-out: EC50 (GLP-1R potency), Table S1.

For orientation: EC50 means the concentration at which the effect is half-maximal.

Like-named read-outs stand apart in the source and are kept apart here. Some results are limits rather than exact numbers.

Method:  HEK-293T cells (Multispan inc., lot#.DC1267-062017) were suspended in cell culture media
(DMEM 1X + GlutaMAX (Gibco 31966-021)) complemented with FBS 10% (Sigma Aldrich
 βTC6 cells were suspended in HBSS buffer (Invitrogen) complemented with 20 mM HEPES (pH
In vitro pharmacology on HEK-293T cells (EC50: Method C1)
cells (Multispan inc., lot#.DC1267-062017) was determined by measuring their effects on cAMP
production using the HTRF detection method (performed by UREkA SARL). The cells were distributed
in 384-well microplates at a density of 1.0x10^4 cells/well. Stock solutions of the test compounds or the
reference agonist were prepared at a concentration of 1 mM in DMSO. Then, compounds to be tested
were diluted in cell culture media and transferred to the plate containing the cells to reach final assay

For the compound `CC[C@H](C)[C@H](NC(=O)[C@H](Cc1ccccc1)NC(=O)[C@H](CCC(=O)O)NC(=O)[C@H](CCCCN)NC(=O)[C@H](C)NC(=O)[C@H](C)NC(=O)[C@H](CCC(N)=O)NC(=O)CNC(=O)[C@H](CCC(=O)O)NC(=O)[C@H](CC(C)C)NC(=O)[C@H](Cc1ccc(O)cc1)NC(=O)[C@H](CO)NC(=O)[C@H](CO)NC(=O)[C@@H](NC(=O)[C@H](CC(=O)O)NC(=O)[C@H](CO)NC(=O)[C@@H](NC(=O)[C@H](Cc1ccccc1)NC(=O)[C@@H](NC(=O)CNC(=O)[C@H](CCC(=O)O)NC(=O)NC[C@@H](NC(=O)[C@@H](N)Cc1c[nH]cn1)[C@@H](C)O)[C@@H](C)O)[C@@H](C)O)C(C)C)C(=O)N[C@@H](C)C(=O)N[C@@H](Cc1c[nH]c2ccccc12)C(=O)N[C@@H](CC(C)C)C(=O)N[C@H](C(=O)N[C@@H](CCCCN)C(=O)NCC(=O)N[C@@H](CCCNC(=N)N)C(=O)NCC(N)=O)C(C)C` [S10], the “Potency (%), Table S1” value is 3%. The concentration for a half-maximal effect (EC50) under setting [1] was 0.0033 µM.
Take `CC[C@H](C)[C@H](NC(=O)[C@H](Cc1ccccc1)NC(=O)[C@H](CCC(=O)O)NC(=O)[C@H](CCCCN)NC(=O)[C@H](C)NC(=O)[C@H](C)NC(=O)[C@H](CCC(N)=O)NC(=O)CNC(=O)[C@H](CCC(=O)O)NC(=O)[C@H](CC(C)C)NC(=O)[C@H](Cc1ccc(O)cc1)NC(=O)[C@H](CO)NC(=O)[C@H](CO)NC(=O)[C@@H](NC(=O)[C@H](CC(=O)O)NC(=O)[C@H](CO)NC(=O)[C@@H](NC(=O)[C@H](Cc1ccccc1)NC(=O)[C@@H](NC(=O)CNC(=O)[C@H](CCC(=O)O)NC(=O)NC[C@H](CO)NC(=O)[C@@H](N)Cc1c[nH]cn1)[C@@H](C)O)[C@@H](C)O)C(C)C)C(=O)N[C@@H](C)C(=O)N[C@@H](Cc1c[nH]c2ccccc12)C(=O)N[C@@H](CC(C)C)C(=O)N[C@H](C(=O)N[C@@H](CCCCN)C(=O)NCC(=O)N[C@@H](CCCNC(=N)N)C(=O)NCC(N)=O)C(C)C` [S1]: the “Potency (%), Table S1” value was found to be 8%.
As for `CC[C@H](C)[C@H](NC(=O)[C@H](Cc1ccccc1)NC(=O)[C@H](CCC(=O)O)NC(=O)[C@H](CCCCN)NC(=O)[C@H](C)NC(=O)[C@H](C)NC(=O)[C@H](CCC(N)=O)NC(=O)CNC(=O)[C@H](CCC(=O)O)NC(=O)[C@H](CC(C)C)NC(=O)[C@H](Cc1ccc(O)cc1)NC(=O)[C@H](CO)NC(=O)[C@H](CO)NC(=O)[C@@H](NC(=O)[C@H](CC(=O)O)NC(=O)[C@H](CO)NC(=O)[C@@H](NC(=O)[C@H](Cc1ccccc1)NC(=O)[C@@H](NC(=O)CNC(=O)[C@H](CCC(=O)O)NC(=O)NC[C@H](Cc1c[nH]c2ccccc12)NC(=O)[C@@H](N)Cc1c[nH]cn1)[C@@H](C)O)[C@@H](C)O)C(C)C)C(=O)N[C@@H](C)C(=O)N[C@@H](Cc1c[nH]c2ccccc12)C(=O)N[C@@H](CC(C)C)C(=O)N[C@H](C(=O)N[C@@H](CCCCN)C(=O)NCC(=O)N[C@@H](CCCNC(=N)N)C(=O)NCC(N)=O)C(C)C` [S11], the EC50 was determined as 0.0022 µM and the “Potency (%), Table S1” value came to 5%.
Turning to `CC[C@H](C)[C@H](NC(=O)[C@H](Cc1ccccc1)NC(=O)[C@H](CCC(=O)O)NC(=O)[C@H](CCCCN)NC(=O)[C@H](C)NC(=O)[C@H](C)NC(=O)[C@H](CCC(N)=O)NC(=O)CNC(=O)[C@H](CCC(=O)O)NC(=O)[C@H](CC(C)C)NC(=O)[C@H](Cc1ccc(O)cc1)NC(=O)[C@H](CO)NC(=O)[C@H](CO)NC(=O)[C@@H](NC(=O)[C@H](CC(=O)O)NC(=O)[C@H](CO)NC(=O)[C@@H](NC(=O)[C@H](Cc1ccccc1)NC(=O)[C@@H](NC(=O)CNC(=O)[C@H](CCC(=O)O)NC(=O)NC[C@H](CCC(N)=O)NC(=O)[C@@H](N)Cc1c[nH]cn1)[C@@H](C)O)[C@@H](C)O)C(C)C)C(=O)N[C@@H](C)C(=O)N[C@@H](Cc1c[nH]c2ccccc12)C(=O)N[C@@H](CC(C)C)C(=O)N[C@H](C(=O)N[C@@H](CCCCN)C(=O)NCC(=O)N[C@@H](CCCNC(=N)N)C(=O)NCC(N)=O)C(C)C` [S4], the “Potency (%), Table S1” value is listed as < 0.01%. Under setting [1], the concentration for a half-maximal effect (EC50) was > 10 µM.
In the same order, the values of `CC[C@H](C)[C@H](NC(=O)[C@H](Cc1ccccc1)NC(=O)[C@H](CCC(=O)O)NC(=O)[C@H](CCCCN)NC(=O)[C@H](C)NC(=O)[C@H](C)NC(=O)[C@H](CCC(N)=O)NC(=O)CNC(=O)[C@H](CCC(=O)O)NC(=O)[C@H](CC(C)C)NC(=O)[C@H](Cc1ccc(O)cc1)NC(=O)[C@H](CO)NC(=O)[C@H](CO)NC(=O)[C@@H](NC(=O)[C@H](CC(=O)O)NC(=O)[C@H](CO)NC(=O)[C@@H](NC(=O)[C@H](Cc1ccccc1)NC(=O)[C@@H](NC(=O)CNC(=O)[C@H](CCC(=O)O)NC(=O)NC[C@H](CCCNC(=N)N)NC(=O)[C@@H](N)Cc1c[nH]cn1)[C@@H](C)O)[C@@H](C)O)C(C)C)C(=O)N[C@@H](C)C(=O)N[C@@H](Cc1c[nH]c2ccccc12)C(=O)N[C@@H](CC(C)C)C(=O)N[C@H](C(=O)N[C@@H](CCCCN)C(=O)NCC(=O)N[C@@H](CCCNC(=N)N)C(=O)NCC(N)=O)C(C)C` [S2] are < 0.01% and > 10 µM.
For the compound `CC[C@H](C)[C@H](NC(=O)[C@H](Cc1ccccc1)NC(=O)[C@H](CCC(=O)O)NC(=O)[C@H](CCCCN)NC(=O)[C@H](C)NC(=O)[C@H](C)NC(=O)[C@H](CCC(N)=O)NC(=O)CNC(=O)[C@H](CCC(=O)O)NC(=O)[C@H](CC(C)C)NC(=O)[C@H](Cc1ccc(O)cc1)NC(=O)[C@H](CO)NC(=O)[C@H](CO)NC(=O)[C@@H](NC(=O)[C@H](CC(=O)O)NC(=O)[C@H](CO)NC(=O)[C@@H](NC(=O)[C@H](Cc1ccccc1)NC(=O)[C@@H](NC(=O)CNC(=O)[C@H](CCC(=O)O)NC(=O)NC[C@H](CCCCN)NC(=O)[C@@H](N)Cc1c[nH]cn1)[C@@H](C)O)[C@@H](C)O)C(C)C)C(=O)N[C@@H](C)C(=O)N[C@@H](Cc1c[nH]c2ccccc12)C(=O)N[C@@H](CC(C)C)C(=O)N[C@H](C(=O)N[C@@H](CCCCN)C(=O)NCC(=O)N[C@@H](CCCNC(=N)N)C(=O)NCC(N)=O)C(C)C` [S8], the “Potency (%), Table S1” value is listed as < 0.01%. In addition, the EC50 under setting [1] is > 10 µM.
Regarding `CC[C@H](C)[C@H](NC(=O)[C@H](Cc1ccccc1)NC(=O)[C@H](CCC(=O)O)NC(=O)[C@H](CCCCN)NC(=O)[C@H](C)NC(=O)[C@H](C)NC(=O)[C@H](CCC(N)=O)NC(=O)CNC(=O)[C@H](CCC(=O)O)NC(=O)[C@H](CC(C)C)NC(=O)[C@H](Cc1ccc(O)cc1)NC(=O)[C@H](CO)NC(=O)[C@H](CO)NC(=O)[C@@H](NC(=O)[C@H](CC(=O)O)NC(=O)[C@H](CO)NC(=O)[C@@H](NC(=O)[C@H](Cc1ccccc1)NC(=O)[C@@H](NC(=O)CNC(=O)[C@H](CCC(=O)O)NC(=O)NC[C@H](CC(C)C)NC(=O)[C@@H](N)Cc1c[nH]cn1)[C@@H](C)O)[C@@H](C)O)C(C)C)C(=O)N[C@@H](C)C(=O)N[C@@H](Cc1c[nH]c2ccccc12)C(=O)N[C@@H](CC(C)C)C(=O)N[C@H](C(=O)N[C@@H](CCCCN)C(=O)NCC(=O)N[C@@H](CCCNC(=N)N)C(=O)NCC(N)=O)C(C)C` [S7], the “Potency (%), Table S1” value is on record as < 0.01%. Moreover, the EC50 under setting [1] is > 10 µM.

The values are drawn from paper PMC6977461 (Chemical Science, 2019).
